Molecular target: T1, GST-JAK2(808-1132) (Homo sapiens, UniProt O60674)
T1 construct: GST-JAK2(808-1132); purchased Invitrogen (Carlsbad, USA) #4288
Assay: JAK2 kinase assay (Caliper mobility shift, LabChip 3000)
Type: biochemical
From the text: All four kinases of the JAK/TYK-kinase family were used as purified recombinant GST-fusion proteins, containing the active kinase domains. GST-JAK1 (866-1154), GST-JAK3(811-1124), and GST-TYK2(888-1187) were expressed and purified by affinity chromatography at the EPK biology unit. GST-JAK2(808-1132) was purchased from Invitrogen (Carlsbad, USA, #4288).
The kinase assays were based on the Caliper mobility shift assay using the LabChip 3000 systems. This technology is similar to capillary electrophoresis and uses charge driven separation of substrate and product in a microfluidic chip.
All kinase reactions were performed in 384 well microtiter plates in a total reaction volume of 18 μl. The assay plates were prepared with 0.1 μl per well of test compound in the appropriate test concentration, as described under the section “preparation of compound dilutions”. The reactions were started by combining 9 μl of substrate mix (consisting of peptide and ATP) with 9 μl of kinase dilution. The reactions were incubated for 60 minutes at 30° C. and stopped by adding 70 μl of stop buffer (100 mM Hepes, 5% DMSO, 0.1% Coating reagent, 10 mM EDTA, 0.015% Brij 35).
Fluorescently labeled synthetic peptides were used as substrates in all reactions. A peptide derived from the sequence of IRS-1(IRS-1 peptide, SEQ ID NO: 1 FITC-Ahx-KKSRGDYMTMQIG-NH2) was used for JAK1 and TYK2 and a peptide named JAK3tide SEQ ID NO: 2 (FITC-GGEEEEYFELVKKKK-NH2) for JAK2 and JAK3. Specific assay conditions are described in Table1:
The terminated reactions were transferred to the Caliper LabChip 3000 reader and the turnover of each reaction was measured by determining the substrate/product ratio.
Test compounds were dissolved in DMSO (10 mM) and transferred into 1.4 mL flat bottom or V-shaped Matrix tubes carrying a unique 2D matrix chip by individual compound hubs. The numbers of these chips were distinctively linked to the individual compound identification numbers. The stock solutions were stored at −20° C. if not used immediately. For the test procedure the vials were defrosted and identified by a scanner whereby a working sheet was generated that guided the subsequent working steps. Compound dilutions were made in 96 well plates. This format enabled the assay of maximally 40 individual test compounds at 8 concentrations (single points) including 4 reference compounds. The dilution protocol included the production of pre-dilution plates, master plates and assay plates:
Pre-dilution plates: 96 polypropylene well plates were used as pre-dilution plates. A total of 4 pre-dilution plates were prepared including 10 test compounds each on the plate positions A1-A10, one standard compound at A11 and one DMSO control at A12. All dilution steps were done on a HamiltonSTAR robot.
Master plates: 100 μL of individual compound dilutions including standard compound and controls of the 4 “pre-dilution plates” were transferred into a 384 “master plate” including the following concentrations 1,820, […], 182, 54.6, 18.2, 5.46, 1.82 and 0.546 μM, respectively in 90% of DMSO.
Assay plates: Identical assay plates were then prepared by pipetting 100 nL each of compound dilutions of the master plates into 384-well “assay plates”. In the following the compounds were mixed with 9 μL of assays components plus 9 μL enzyme corresponding to a 1:181 dilution steps enabling the final concentration of 10, 3.0, 1.0, 0.3, 0.1, 0.03, 0.01 and 0.003 μM, respectively. The preparation of the master plates were handled by the Matrix PlateMate Plus robot and replication of assay plates by the HummingBird robot.

T1 sequence (O60674 808-1132): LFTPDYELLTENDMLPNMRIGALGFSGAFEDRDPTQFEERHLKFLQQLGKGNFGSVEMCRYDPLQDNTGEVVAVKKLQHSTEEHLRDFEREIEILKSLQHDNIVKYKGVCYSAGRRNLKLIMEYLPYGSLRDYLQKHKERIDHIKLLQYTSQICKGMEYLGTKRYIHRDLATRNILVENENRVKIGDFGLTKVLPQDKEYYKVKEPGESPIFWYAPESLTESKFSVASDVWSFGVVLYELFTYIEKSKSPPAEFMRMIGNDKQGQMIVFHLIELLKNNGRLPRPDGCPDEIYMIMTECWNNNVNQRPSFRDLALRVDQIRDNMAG

Compound | IC50
Cc1ccc(Nc2ncc3ccn(-c4ccc(S(C)(=O)=O)cc4)c3n2)cc1CN1CCOCC1 [Example 328, [7-(4-Methanesulfonyl-phenyl)-7H-pyrrolo[2,3-d]pyrimidin-2-yl]-(4-methyl-3-morpholin-4-ylmethyl-phenyl)-amine] | 16 nM
OC1CCN(Cc2ccc(Nc3ncc4ccn(-c5cc(F)c(CN6CCOCC6)c(F)c5)c4n3)cn2)C1 (racemic) [Example 388, 1-{5-[7-(3,5-Difluoro-4-morpholin-4-ylmethyl-phenyl)-7H-pyrrolo[2,3-d]pyrimidin-2-ylamino]-pyridin-2-ylmethyl}-pyrrolidin-3-ol] | ≤ 3 nM
C[C@@H]1CN(Cc2ccc(Nc3ncc4ccn(-c5cc(F)c(CN6CCOCC6)c(F)c5)c4n3)cc2)C[C@H](C)N1 [Example 254] | < 3 nM
CN1CCN(c2ccc(Nc3ncc4ccn(-c5cc(F)c(C#N)c(F)c5)c4n3)cn2)CC1 [Example 445, 2,6-Difluoro-4-{2-[6-(4-methyl-piperazin-1-yl)-pyridin-3-ylamino]-pyrrolo[2,3-d]pyrimidin-7-yl}-benzonitrile] | 43 nM
O=C(c1c(F)cc(-n2ccc3cnc(Nc4ccc(CN5CCNCC5)cc4)nc32)cc1F)N1CCOCC1 [Example 314, {2,6-Difluoro-4-[2-(4-piperazin-1-ylmethyl-phenylamino)-pyrrolo[2,3-d]pyrimidin-7-yl]-phenyl}-morpholin-4-yl-methanone] | < 3 nM
Fc1cc(-n2ccc3cnc(Nc4ccc(CN5CCN(C6CC6)CC5)cc4)nc32)cc(F)c1CN1CCOCC1 [Example 329, [4-(4-Cyclopropyl-piperazin-1-ylmethyl)-phenyl]-[7-(3,5-difluoro-4-morpholin-4-ylmethyl-phenyl)-7H-pyrrolo[2,3-d]pyrimidin-2-yl]-amine] | 4 nM
CS(=O)(=O)c1ccc(-n2ccc3cnc(Nc4ccc5c(c4)OC(F)(F)C(F)(F)O5)nc32)cc1 [Example 14, [7-(4-Methanesulfonyl-phenyl)-7H-pyrrolo[2,3-d]pyrimidin-2-yl]-(2,2,3,3-tetrafluoro-2,3-dihydro-benzo[1,4]dioxin-6-yl)-amine] | 2100 nM
CCN1CCN(c2ccc(Nc3ncc4ccn(-c5ccc(CN6CCOCC6)c(F)c5)c4n3)cc2C)CC1 [Example 285, [4-(4-Ethyl-piperazin-1-yl)-3-methyl-phenyl]-[7-(3-fluoro-4-morpholin-4-ylmethyl-phenyl)-7H-pyrrolo[2,3-d]pyrimidin-2-yl]-amine] | < 3 nM
CC(C)(C)OC(=O)N1CCC(n2cc(Nc3ncc4ccn(-c5cc(F)c(CN6CCOCC6)c(F)c5)c4n3)cn2)CC1 [Example 320, 4-{4-[7-(3,5-Difluoro-4-morpholin-4-ylmethyl-phenyl)-7H-pyrrolo[2,3-d]pyrimidin-2-ylamino]-pyrazol-1-yl}-piperidine-1-carboxylic acid tert-butyl ester] | 9.5 nM
COC(C)c1ccc(-n2ccc3cnc(Nc4ccc(N5CCN(C)CC5)nc4)nc32)cc1 (racemic) [Example 449, {7-[4-(1-Methoxy-ethyl)-phenyl]-7H-pyrrolo[2,3-d]pyrimidin-2-yl}-[6-(4-methyl-piperazin-1-yl)-pyridin-3-yl]-amine] | ≤ 3 nM
COc1ccc(Nc2ncc3ccn(-c4ccc(S(C)(=O)=O)cc4)c3n2)cc1O [Example 24, 5-[7-(4-Methanesulfonyl-phenyl)-7H-pyrrolo[2,3-d]pyrimidin-2-ylamino]-2-methoxy-phenol] | 3.5 nM
Cc1ccc(Nc2ncc3ccn(-c4ccc(C(=O)N5CCOCC5)c(F)c4)c3n2)cc1CN1C[C@H](C)NC[C@H]1C (racemic) [Example 379, (4-{2-[3-((2R,5S)-2,5-Dimethyl-piperazin-1-ylmethyl)-4-methyl-phenylamino]-pyrrolo[2,3-d]pyrimidin-7-yl}-2-fluoro-phenyl)-morpholin-4-yl-methanone] | 11 nM
CN1CCN(c2ccc(Nc3ncc4ccn(-c5ccc(N6CCCC6=O)cc5)c4n3)cn2)CC1 [Example 283, 1-(4-{2-[6-(4-Methyl-piperazin-1-yl)-pyridin-3-ylamino]-pyrrolo[2,3-d]pyrimidin-7-yl}-phenyl)-pyrrolidin-2-one] | 23 nM

— US8420657B2 (Novartis AG, priority 2008, dated 2013)
